These results are taken from patent US9108944B2, “Androgen receptor modulators and uses thereof” (ARAGON PHARMACEUTICALS, INC., priority 2010, dated 2015).

Assay [1] has as its target T1, AR-VP16 (Homo sapiens, UniProt P10275).
T1 sequence (P10275 560-920 limits assumed): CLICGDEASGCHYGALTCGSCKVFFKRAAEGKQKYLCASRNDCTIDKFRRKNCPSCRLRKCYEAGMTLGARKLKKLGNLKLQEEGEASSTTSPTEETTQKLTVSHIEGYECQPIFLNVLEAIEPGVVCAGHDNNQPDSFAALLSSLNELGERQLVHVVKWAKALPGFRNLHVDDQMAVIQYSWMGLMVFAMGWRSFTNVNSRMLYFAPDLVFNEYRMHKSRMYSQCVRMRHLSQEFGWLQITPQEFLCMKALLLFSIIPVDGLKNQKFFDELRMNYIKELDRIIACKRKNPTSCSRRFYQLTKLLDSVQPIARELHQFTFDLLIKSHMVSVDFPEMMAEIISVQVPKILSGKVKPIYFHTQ
In words: AR-VP16 DNA Binding Assay, antagonist mode (HepG2 cells, 0.1 nM R1881). The class given is cell-based. Summed up:
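HepG2 cells transiently transfected with AR-VP16 (Lipofectin), incubated overnight, then treated with compound in RPMI with charcoal-stripped serum. Antagonist mode adds R1881 at 0.1 nM final. Cells lysed after 48 h incubation for read-out.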

Assay [2] concerns the target T1, AR-VP16. In words: AR-VP16 DNA Binding Assay, agonist mode (HepG2 cells). The note with it: Emax >20x DMSO control = agonist. The format is cell-based.

Each structure is given as a SMILES string.

As to `Cc1cc(N2C(=O)C3(CCC3)N(c3ccc(OC4CCN(C)CC4)cc3)C2=S)cnc1C#N` [Compound 191, 3-Methyl-5-(5-(4-((1-methylpiperidin-4-yl)oxy)phenyl)-8-oxo-6-thioxo-5,7-diazaspiro[3.4]octan-7-yl)picolinonitrile], the IC50 at AR-VP16 [1] is more than 1 µM. Moreover, the “ARVP16 DNA Binding Assay (Agonist mode): Agonist?” value (from here on “ARVP16 DNA Binding Assay”) on AR-VP16 [2] is on record as “No (Agonist defined as a compound whose Emax in the ARVP16 DNA Binding Assay (Agonist mode) is >20x DMSO control)”.

For the compound `Cc1cc(N2C(=O)C3(CCC3)N(c3ccc(OC4CCN(C)CC4)c(F)c3)C2=S)cnc1C#N` [Compound 192, 5-(5-(3-Fluoro-4-((1-methylpiperidin-4-yl)oxy)phenyl)-8-oxo-6-thioxo-5,7-diazaspiro[3.4]octan-7-yl)-3-methylpicolinonitrile], the IC50 at AR-VP16 [1] was more than 1 µM. In addition, on AR-VP16 [2], the “ARVP16 DNA Binding Assay” value was “No (Agonist defined as a compound whose Emax in the ARVP16 DNA Binding Assay (Agonist mode) is >20x DMSO control)”.

In the case of `Cc1cc(N2C(=O)C3(CCC3)N(c3ccc(OC4CCSCC4)cc3)C2=S)cnc1C#N` [Compound 195, 3-Methyl-5-(8-oxo-5-(4-((tetrahydro-2H-thiopyran-4-yl)oxy)phenyl)-6-thioxo-5,7-diazaspiro[3.4]octan-7-yl)picolinonitrile], the concentration for half-maximal inhibition (IC50) on AR-VP16 [1] was less than 1 µM. The “ARVP16 DNA Binding Assay” value on AR-VP16 [2] is “No (Agonist defined as a compound whose Emax in the ARVP16 DNA Binding Assay (Agonist mode) is >20x DMSO control)”.

Turning to `Cc1cc(N2C(=O)C(C)(C)N(c3ccc(OC4CCN(C)CC4)cc3)C2=S)cnc1C#N` [Compound 197, 5-(4,4-Dimethyl-3-(4-((1-methylpiperidin-4-yl)oxy)phenyl)-5-oxo-2-thioxoimidazolidin-1-yl)-3-methylpicolinonitrile], the IC50 on AR-VP16 [1] is more than 1 µM. Moreover, the “ARVP16 DNA Binding Assay” value on AR-VP16 [2] was “No (Agonist defined as a compound whose Emax in the ARVP16 DNA Binding Assay (Agonist mode) is >20x DMSO control)”.

Turning to `N#Cc1ncc(N2C(=O)C3(CCC3)N(c3ccc(OC4CCOCC4)cc3)C2=S)cc1C(F)(F)F` [Compound 198, 5-(8-Oxo-5-(4-((tetrahydro-2H-pyran-4-yl)oxy)phenyl)-6-thioxo-5,7-diazaspiro[3.4]octan-7-yl)-3-(trifluoromethyl)picolinonitrile], the IC50 on AR-VP16 [1] is less than 1 µM. Besides, the “ARVP16 DNA Binding Assay” value at AR-VP16 [2] is “No (Agonist defined as a compound whose Emax in the ARVP16 DNA Binding Assay (Agonist mode) is >20x DMSO control)”.

Compound `Cc1cc(N2C(=O)C3(CCC3)N(c3ccc(OCCN4CCN(C)CC4)cc3)C2=S)cnc1C#N` [Compound 200, 3-Methyl-5-(5-(4-(2-(4-methylpiperazin-1-yl)ethoxy)phenyl)-8-oxo-6-thioxo-5,7-diazaspiro[3.4]octan-7-yl)picolinonitrile] had an IC50 at AR-VP16 [1] of less than 1 µM. Further, the “ARVP16 DNA Binding Assay” value at AR-VP16 [2] is given as “Yes (Agonist defined as a compound whose Emax in the ARVP16 DNA Binding Assay (Agonist mode) is >20x DMSO control)”.

For `Cc1cc(N2C(=O)C3(CCC3)N(c3ccc(OC4CCS(=O)(=O)CC4)cc3)C2=S)cnc1C#N` [Compound 201, 5-(5-(4-((1,1-Dioxidotetrahydro-2H-thiopyran-4-yl)oxy)phenyl)-8-oxo-6-thioxo-5,7-diazaspiro[3.4]octan-7-yl)-3-methylpicolinonitrile], on AR-VP16 [1], the IC50 was less than 1 µM. In addition, at AR-VP16 [2], the “ARVP16 DNA Binding Assay” value is on record as “No (Agonist defined as a compound whose Emax in the ARVP16 DNA Binding Assay (Agonist mode) is >20x DMSO control)”.

Take `COc1ccc(N2C(=S)N(c3cnc(C#N)c(C(F)(F)F)c3)C(=O)C23CCC3)cc1F` [Compound 203, 5-(5-(3-Fluoro-4-methoxyphenyl)-8-oxo-6-thioxo-5,7-diazaspiro[3.4]octan-7-yl)-3-(trifluoromethyl)picolinonitrile]: the IC50 on AR-VP16 [1] was less than 1 µM. Besides, the “ARVP16 DNA Binding Assay” value at AR-VP16 [2] is “No (Agonist defined as a compound whose Emax in the ARVP16 DNA Binding Assay (Agonist mode) is >20x DMSO control)”.

At AR-VP16 [1], `COc1ccc(N2C(=S)N(c3cnc(C#N)c(C)c3)C(=O)C23CCC3)cc1` [Compound 205, 5-(5-(4-Methoxyphenyl)-8-oxo-6-thioxo-5,7-diazaspiro[3.4]octan-7-yl)-3-methylpicolinonitrile] came in with an IC50 of less than 1 µM. Further, at AR-VP16 [2], the “ARVP16 DNA Binding Assay” value is “No (Agonist defined as a compound whose Emax in the ARVP16 DNA Binding Assay (Agonist mode) is >20x DMSO control)”.

In the case of `N#Cc1ncc(N2C(=O)C3(CCC3)N(c3ccc(Oc4cnccn4)cc3)C2=S)cc1C(F)(F)F` [Compound 207, 5-(8-Oxo-5-(4-(pyrazin-2-yloxy)phenyl)-6-thioxo-5,7-diazaspiro[3.4]octan-7-yl)-3-(trifluoromethyl)picolinonitrile], the half-inhibitory concentration (IC50) on AR-VP16 [1] was less than 1 µM. For the same compound, on AR-VP16 [2], the “ARVP16 DNA Binding Assay” value was “No (Agonist defined as a compound whose Emax in the ARVP16 DNA Binding Assay (Agonist mode) is >20x DMSO control)”.

Take `Cc1cc(N2C(=O)C3(CCC3)N(c3ccc(OC4CCNCC4)cc3)C2=S)cnc1C#N` [Compound 210, 3-Methyl-5-(8-oxo-5-(4-(piperidin-4-yloxy)phenyl)-6-thioxo-5,7-diazaspiro[3.4]octan-7-yl)picolinonitrile]: the IC50 on AR-VP16 [1] was more than 1 µM. Also, the “ARVP16 DNA Binding Assay” value at AR-VP16 [2] is given as “No (Agonist defined as a compound whose Emax in the ARVP16 DNA Binding Assay (Agonist mode) is >20x DMSO control)”.

With `N#Cc1ncc(N2C(=O)C3(CCC3)N(c3ccc(OC4CCNCC4)cc3)C2=S)cc1C(F)(F)F` [Compound 211, 5-(8-Oxo-5-(4-(piperidin-4-yloxy)phenyl)-6-thioxo-5,7-diazaspiro[3.4]octan-7-yl)-3-(trifluoromethyl)picolinonitrile], the IC50 on AR-VP16 [1] was less than 1 µM. Moreover, on AR-VP16 [2], the “ARVP16 DNA Binding Assay” value is “No (Agonist defined as a compound whose Emax in the ARVP16 DNA Binding Assay (Agonist mode) is >20x DMSO control)”.

The compound `CCC(=O)N1CCC(Oc2ccc(N3C(=S)N(c4cnc(C#N)c(C(F)(F)F)c4)C(=O)C34CCC4)cc2)CC1` [Compound 212, 5-(8-Oxo-5-(4-((1-propionylpiperidin-4-yl)oxy)phenyl)-6-thioxo-5,7-diazaspiro[3.4]octan-7-yl)-3-(trifluoromethyl)picolinonitrile] displayed an IC50 at AR-VP16 [1] of less than 1 µM. In addition, on AR-VP16 [2], the “ARVP16 DNA Binding Assay” value is “Yes (Agonist defined as a compound whose Emax in the ARVP16 DNA Binding Assay (Agonist mode) is >20x DMSO control)”.

Turning to `CC(C)C(=O)N1CCC(Oc2ccc(N3C(=S)N(c4cnc(C#N)c(C(F)(F)F)c4)C(=O)C34CCC4)cc2)CC1` [Compound 213, 5-(5-(4-((1-isobutyrylpiperidin-4-yl)oxy)phenyl)-8-oxo-6-thioxo-5,7-diazaspiro[3.4]octan-7-yl)-3-(trifluoromethyl)picolinonitrile], the 50% inhibitory concentration (IC50) on AR-VP16 [1] is less than 1 µM. The “ARVP16 DNA Binding Assay” value on AR-VP16 [2] is recorded as “Yes (Agonist defined as a compound whose Emax in the ARVP16 DNA Binding Assay (Agonist mode) is >20x DMSO control)”.

`CCOC(=O)N1CCC(Oc2ccc(N3C(=S)N(c4cnc(C#N)c(C(F)(F)F)c4)C(=O)C34CCC4)cc2)CC1` [Compound 214, ethyl 4-(4-(7-(6-cyano-5-(trifluoromethyl)pyridin-3-yl)-8-oxo-6-thioxo-5,7-diazaspiro[3.4]octan-5-yl)phenoxy)piperidine-1-carboxylate] yielded an IC50 on AR-VP16 [1] of less than 1 µM. The “ARVP16 DNA Binding Assay” value on AR-VP16 [2] is “Yes (Agonist defined as a compound whose Emax in the ARVP16 DNA Binding Assay (Agonist mode) is >20x DMSO control)”.

In turn, `CC(=O)N1CCC(Oc2ccc(N3C(=S)N(c4cnc(C#N)c(C)c4)C(=O)C34CCC4)cc2)CC1` [Compound 215, 5-(5-(4-((1-acetylpiperidin-4-yl)oxy)phenyl)-8-oxo-6-thioxo-5,7-diazaspiro[3.4]octan-7-yl)-3-methylpicolinonitrile] gave an IC50 at AR-VP16 [1] of less than 1 µM. At AR-VP16 [2], the “ARVP16 DNA Binding Assay” value is “Yes (Agonist defined as a compound whose Emax in the ARVP16 DNA Binding Assay (Agonist mode) is >20x DMSO control)”.

For `CCN1CCC(Oc2ccc(N3C(=S)N(c4cnc(C#N)c(C)c4)C(=O)C34CCC4)cc2)CC1` [Compound 216, 5-(5-(4-((1-Ethylpiperidin-4-yl)oxy)phenyl)-8-oxo-6-thioxo-5,7-diazaspiro[3.4]octan-7-yl)-3-methylpicolinonitrile], the IC50 on AR-VP16 [1] is more than 1 µM. Besides, on AR-VP16 [2], the “ARVP16 DNA Binding Assay” value was “No (Agonist defined as a compound whose Emax in the ARVP16 DNA Binding Assay (Agonist mode) is >20x DMSO control)”.

On to `Cc1cc(N2C(=O)C3(CCC3)N(c3ccc(OC4CCN(CCO)CC4)cc3)C2=S)cnc1C#N` [Compound 217, 5-(5-(4-((1-(2-Hydroxyethyl)piperidin-4-yl)oxy)phenyl)-8-oxo-6-thioxo-5,7-diazaspiro[3.4]octan-7-yl)-3-methylpicolinonitrile], for which the IC50 on AR-VP16 [1] was less than 1 µM. In addition, the “ARVP16 DNA Binding Assay” value on AR-VP16 [2] was “No (Agonist defined as a compound whose Emax in the ARVP16 DNA Binding Assay (Agonist mode) is >20x DMSO control)”.

Consider `CS(=O)(=O)N1CCC(Oc2ccc(N3C(=S)N(c4cnc(C#N)c(C(F)(F)F)c4)C(=O)C34CCC4)cc2)CC1` [Compound 219, 5-(5-(4-((1-(methylsulfonyl)piperidin-4-yl)oxy)phenyl)-8-oxo-6-thioxo-5,7-diazaspiro[3.4]octan-7-yl)-3-(trifluoromethyl)picolinonitrile], for which, on AR-VP16 [1], the IC50 is less than 1 µM. In addition, at AR-VP16 [2], the “ARVP16 DNA Binding Assay” value is given as “Yes (Agonist defined as a compound whose Emax in the ARVP16 DNA Binding Assay (Agonist mode) is >20x DMSO control)”.

What is called IC50 is the point on the concentration scale where inhibition reaches its midpoint. The low end stands for greater potency, the high end for weaker potency.
